Legend:
Assay type in all cases: functional
HL-60 [1] = assay: Antitumor activity against human HL60 cells at 10^-7 mol/l by MTT assay
HL-60 [2] = assay: Antitumor activity against human HL60 cells at 10^-5 mol/l by MTT assay
HL-60 [3] = assay: Antitumor activity against human HL60 cells at 10^-8 mol/l by MTT assay
HL-60 [4] = assay: Antitumor activity against human HL60 cells at 10^-4 mol/l by MTT assay
HL-60 [5] = assay: Antitumor activity against human HL60 cells at 10^-6 mol/l by MTT assay
A549 [6] = assay: Antitumor activity against human A549 cells at 10^-5 mol/l by SRB assay
A549 [7] = assay: Antitumor activity against human A549 cells at 10^-8 mol/l by SRB assay
A549 [8] = assay: Antitumor activity against human A549 cells at 10^-4 mol/l by SRB assay
A549 [9] = assay: Antitumor activity against human A549 cells at 10^-6 mol/l by SRB assay
A549 [10] = assay: Antitumor activity against human A549 cells at 10^-7 mol/l by SRB assay

SMILES | Activity (HL-60 [1]) [%] | Activity (HL-60 [2]) [%] | Activity (HL-60 [3]) [%] | Activity (HL-60 [4]) [%] | Activity (HL-60 [5]) [%] | Activity (A549 [6]) [%] | Activity (A549 [7]) [%] | Activity (A549 [8]) [%] | Activity (A549 [9]) [%] | Activity (A549 [10]) [%]
CC(C)c1cc2c(cc1O)[C@@]1(C)CCCC(C)(C)C1=C(O)C2=O | 11.9 | 54.4 | 8.3 | 55.4 | 11.9 |  |  |  |  | 
CC(C)c1cc2c(c(O)c1O)[C@@]1(C)CCCC(C)(C)C1=C(O)C2=O [14-DEOXYCOLEON U] | 13.9 | 53.6 | 8.4 | 50.6 | 11.5 | 53.6 | 8.4 | 50.6 | 11.5 | 13.9
COc1c(C(C)C)cc2c(c1O)[C@@]1(C)CCCC(C)(C)[C@@H]1[C@@H](O)[C@@H]2OC [FORTUNIN C] | 10.8 | 56.2 | 9.3 | 58.5 | 14.4 |  |  |  |  | 

Source: ChEMBL document CHEMBL1157520, “Abietane diterpenoids from the bark of Cryptomeria fortunei” (2008)
